pEC50: −log10 of the molar value.
Target: T1, soluble guanylate cyclase (sGC) expressed by CHO-K1-Rat sGC monoclonal cell line (Rattus norvegicus, UniProt P19686+P20595)
T1 construct: expressed in transfected cells; host or cells: CHO-K1
T1 sequence (P19686 1-690): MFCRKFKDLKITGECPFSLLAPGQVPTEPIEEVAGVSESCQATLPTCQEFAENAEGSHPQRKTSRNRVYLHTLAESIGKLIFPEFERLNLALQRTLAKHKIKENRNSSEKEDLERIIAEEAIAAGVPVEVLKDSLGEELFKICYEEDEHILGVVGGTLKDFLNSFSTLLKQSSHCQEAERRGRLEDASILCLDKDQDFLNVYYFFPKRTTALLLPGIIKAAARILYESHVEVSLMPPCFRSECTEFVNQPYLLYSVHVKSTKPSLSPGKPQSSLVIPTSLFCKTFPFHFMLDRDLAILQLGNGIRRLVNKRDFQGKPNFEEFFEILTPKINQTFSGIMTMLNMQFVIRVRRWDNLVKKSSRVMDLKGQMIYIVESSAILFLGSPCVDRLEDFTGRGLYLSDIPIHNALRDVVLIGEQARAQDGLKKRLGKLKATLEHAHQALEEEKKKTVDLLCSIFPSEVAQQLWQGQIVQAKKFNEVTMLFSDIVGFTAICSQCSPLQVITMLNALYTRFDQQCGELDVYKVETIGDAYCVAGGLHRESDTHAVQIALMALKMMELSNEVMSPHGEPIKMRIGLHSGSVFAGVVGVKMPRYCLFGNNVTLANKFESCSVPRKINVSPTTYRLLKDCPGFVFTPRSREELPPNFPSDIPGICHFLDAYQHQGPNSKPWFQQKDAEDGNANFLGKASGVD
T1 sequence (P20595 1-619): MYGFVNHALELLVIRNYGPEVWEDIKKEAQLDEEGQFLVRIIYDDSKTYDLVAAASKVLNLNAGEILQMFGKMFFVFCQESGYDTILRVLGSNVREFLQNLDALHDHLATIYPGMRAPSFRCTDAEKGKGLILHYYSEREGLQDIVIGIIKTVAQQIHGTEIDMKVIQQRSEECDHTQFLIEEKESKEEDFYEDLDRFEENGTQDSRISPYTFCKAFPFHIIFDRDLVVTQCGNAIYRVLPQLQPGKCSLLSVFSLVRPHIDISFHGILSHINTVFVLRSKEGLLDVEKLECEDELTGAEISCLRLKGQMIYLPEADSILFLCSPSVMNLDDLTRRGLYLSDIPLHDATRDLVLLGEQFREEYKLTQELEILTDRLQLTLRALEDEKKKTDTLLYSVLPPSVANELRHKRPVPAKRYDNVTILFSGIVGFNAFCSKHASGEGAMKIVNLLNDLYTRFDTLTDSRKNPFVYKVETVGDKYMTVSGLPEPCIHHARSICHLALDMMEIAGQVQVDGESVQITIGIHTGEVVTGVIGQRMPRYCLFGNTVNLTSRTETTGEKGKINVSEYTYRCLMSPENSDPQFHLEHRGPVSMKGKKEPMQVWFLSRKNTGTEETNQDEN
Assay: Effect on recombinant guanylate cyclase reporter cell line (CHO-K1-Rat sGC, Cisbio cGMP HTRF)
Type: cell-based
Conditions: activating soluble guanylate cyclase
Text: Transfection of Soluble Guanylate Cyclase (sGC) gene into CHO-K1 cells and selection of cells with stably and highly expressed sGC: Rat sGCα1 and Rat sGCβ1 Genes were synthesized, and then pcDNA3.1(+)-rat sGCα1 and pcDNA3.1/Hygro (+)-rat sGCβ1 plasmid were constructed; the plasmid was co-transfected into CHO-K1 cells, and a positive clone cell line stably expressing CHO-K1-Rat sGC was selected using the Cisbio cGMP HTRF assay kit.
The activity of the compound on the CHO-K1-Rat sGC monoclonal cell line was determined: The CHO-K1-Rat sGC monoclonal cell line was cultured, and used for test operation at degree of fusion of about 70% to 90%. The cells were resuspended in complete medium after TrypLE digestion; the cells were inoculated in a 384-well (low volume tissues culture treated) cell culture plate at a seeding density of 7500/well in 25 μL of complete medium and incubated at 37° C. in 5% CO2 atmosphere for 20 hours; the test compounds were dissolved and dilute with DMSO to give 10 concentration gradients (2× working concentration); 384-well cell culture plates were centrifugated (200 g) for 3 seconds by inversion at RT, medium was removed; The test compounds in each different concentration gradient and corresponding reagent were added into each cell well according to the detection process of Cisbio cGMP HTRF assay kit. The data were collected with Envision HTRF detector and the EC50 value of each compound in activating soluble guanylate cyclase was calculated.

pEC50: 6.43
Structure (SMILES): COC(=O)Nc1c(N)nc(-c2nn(Cc3ccccc3F)c3c(F)cccc23)nc1N [Example 10, methyl (4,6-diamino-2-(7-fluoro-1-(2-fluorobenzyl)-1H-indazol-3-yl)pyrimidin-5-yl)carbamate]
